Experimental data taken from ChEMBL document CHEMBL1201862, “PubChem BioAssay data set” (2004).
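96-well plates; 48 h exposure; 5 concentrations. Endpoints by linear interpolation between flanking doses. Not reached: highest tested concentration assigned. At the GI50, growth is halved.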 The source made the active and inactive calls. No stated cut-off is given here; in the data, active = GI50 up to about 1.1 µM and inactive = higher.

How the values were obtained:
Assay in all cases: DTP human tumour cell line panel, 48 h
Malme-3M = tested on: Malme-3M
LOX IMVI = tested on: LOX IMVI
OVCAR-3 = tested on: OVCAR-3
HOP-62 = tested on: HOP-62
KM12 = tested on: KM12
OVCAR-8 = tested on: OVCAR-8
OVCAR-4 = tested on: OVCAR-4
MOLT-4 = tested on: MOLT-4
IGROV-1 = tested on: IGROV-1
HCT-116 = tested on: HCT-116
HOP-92 = tested on: HOP-92
OVCAR-5 = tested on: OVCAR-5
SNB-75 = tested on: SNB-75
RXF 393 = tested on: RXF 393
SR = tested on: SR
786-0 = tested on: 786-0
SF-539 = tested on: SF-539
MDA-MB-231 = tested on: MDA-MB-231
MDA-MB-435 = tested on: MDA-MB-435
T47D = tested on: T47D

| SMILES | GI50 (Malme-3M) | GI50 (LOX IMVI) | GI50 (OVCAR-3) | GI50 (HOP-62) | GI50 (KM12) | GI50 (OVCAR-8) | GI50 (OVCAR-4) | GI50 (MOLT-4) | GI50 (IGROV-1) | GI50 (HCT-116) | GI50 (HOP-92) | GI50 (OVCAR-5) | GI50 (SNB-75) | GI50 (RXF 393) | GI50 (SR) | GI50 (786-0) | GI50 (SF-539) | GI50 (MDA-MB-231) | GI50 (MDA-MB-435) | GI50 (T47D) |
| --- | --- | --- | --- | --- | --- | --- | --- | --- | --- | --- | --- | --- | --- | --- | --- | --- | --- | --- | --- | --- |
| C#CCn1c(=O)c(C#N)c(O)c2cc3ccccc3nc21 | > 100 µM (inactive) | > 100 µM (inactive) | > 100 µM (inactive) | > 100 µM (inactive) | > 100 µM (inactive) | > 100 µM (inactive) | > 10 µM (inactive) | > 100 µM (inactive) | > 100 µM (inactive) | > 100 µM (inactive) | > 100 µM (inactive) | > 84.9 µM (inactive) | > 100 µM (inactive) | > 100 µM (inactive) |  |  |  |  |  |  |
| COc1c2c(c(O)c3c4c(c(C)cc13)C1OC3(C(OC)OC5CC(C)(O)C(OC6CC(C)(O)C(O)C(C)O6)C(C)O5)OC1C(OC)(O4)C31CO1)C(=O)C(O)CC2OC1CC(C)(O)C(OC(C)=O)C(C)O1 (stereo not drawn) | < 0.01 µM (active) | < 0.01 µM (active) | < 0.01 µM (active) | < 0.01 µM (active) | < 0.01 µM (active) | < 0.01 µM (active) | < 0.01 µM (active) | < 0.01 µM (active) | < 0.01 µM (active) | < 0.01 µM (active) | < 0.01 µM (active) | < 0.01 µM (active) | < 0.01 µM (active) | < 0.01 µM (active) | < 0.01 µM (active) | < 0.01 µM (active) | < 0.01 µM (active) |  |  |  |
| CSC(=N)NNC(=O)CCC(=O)Nc1ccccc1C(F)(F)F | > 100 µM (inactive) | > 100 µM (inactive) | > 100 µM (inactive) | > 100 µM (inactive) | > 100 µM (inactive) | > 100 µM (inactive) | > 100 µM (inactive) | > 100 µM (inactive) | > 100 µM (inactive) | > 100 µM (inactive) | > 100 µM (inactive) | > 100 µM (inactive) | > 52.2 µM (inactive) | > 100 µM (inactive) | > 100 µM (inactive) | > 100 µM (inactive) | > 79.8 µM (inactive) |  |  |  |
| CCN(CC)CC(=N)N(CC)c1ccccc1 | > 100 µM (inactive) | > 100 µM (inactive) | > 100 µM (inactive) | > 100 µM (inactive) | > 100 µM (inactive) | > 100 µM (inactive) | > 100 µM (inactive) | > 100 µM (inactive) | > 100 µM (inactive) | > 100 µM (inactive) | > 100 µM (inactive) | > 100 µM (inactive) | 33.7 µM (inactive) | > 100 µM (inactive) |  | > 100 µM (inactive) | > 100 µM (inactive) |  |  |  |
| CCC(=O)C(c1ccccc1)c1ccccn1 (stereo not drawn) | > 100 µM (inactive) | > 100 µM (inactive) | 13.8 µM (inactive) | > 100 µM (inactive) | > 100 µM (inactive) | > 100 µM (inactive) | > 100 µM (inactive) |  | > 100 µM (inactive) | > 100 µM (inactive) | > 100 µM (inactive) | > 100 µM (inactive) | > 100 µM (inactive) | > 100 µM (inactive) |  | > 100 µM (inactive) |  | > 100 µM (inactive) | > 100 µM (inactive) | > 100 µM (inactive) |
| O=C(Nc1cc(Cl)c(Cl)cc1Cl)C(=O)C1C=CCS1(=O)=O (stereo not drawn) | > 100 µM (inactive) | > 100 µM (inactive) | > 100 µM (inactive) | > 100 µM (inactive) | > 100 µM (inactive) | > 100 µM (inactive) | > 100 µM (inactive) | > 100 µM (inactive) | > 100 µM (inactive) | > 100 µM (inactive) | 26.8 µM (inactive) | > 100 µM (inactive) | 72.6 µM (inactive) | > 100 µM (inactive) | > 100 µM (inactive) | > 100 µM (inactive) | > 100 µM (inactive) |  |  |  |
| OCCOCn1nc(-c2ccccc2)nc1-c1cnccn1 |  | > 100 µM (inactive) | > 100 µM (inactive) | > 100 µM (inactive) | > 100 µM (inactive) | > 100 µM (inactive) | > 100 µM (inactive) | > 100 µM (inactive) | > 100 µM (inactive) | > 100 µM (inactive) | > 100 µM (inactive) | > 100 µM (inactive) | 35 µM (inactive) | > 100 µM (inactive) | > 100 µM (inactive) | > 100 µM (inactive) | > 100 µM (inactive) | > 100 µM (inactive) |  | > 100 µM (inactive) |
| CCCn1c(C23CC4CC(CC(C4)C2)C3)nc2ccc(Cl)cc2c1=O | > 100 µM (inactive) | 36.6 µM (inactive) | 49 µM (inactive) | 23.4 µM (inactive) | 31.9 µM (inactive) | 44.4 µM (inactive) | 42.2 µM (inactive) | 33.7 µM (inactive) | 51.9 µM (inactive) | 30.1 µM (inactive) | 42.8 µM (inactive) | 74.8 µM (inactive) |  | 7.11 µM (inactive) |  | 34.2 µM (inactive) | > 100 µM (inactive) | > 100 µM (inactive) | 36.6 µM (inactive) | 25.8 µM (inactive) |
| O=C1NC(c2cccc3ccccc23)Nc2ccc(O)cc21 (stereo not drawn) | 24.4 µM (inactive) | 16.2 µM (inactive) | 24.5 µM (inactive) | 31.8 µM (inactive) | 23.4 µM (inactive) | 36.9 µM (inactive) | 1.1 µM (active) | 9.48 µM (inactive) | 35.1 µM (inactive) | 32.1 µM (inactive) | 35 µM (inactive) | 32.6 µM (inactive) | 38.6 µM (inactive) | 31 µM (inactive) |  |  | 33 µM (inactive) |  |  |  |
| O=Cc1ccc(CCl)cc1 |  | 11 µM (inactive) | 19.1 µM (inactive) |  | 23.5 µM (inactive) | 18.8 µM (inactive) |  | 22.9 µM (inactive) | 20.8 µM (inactive) | 14.5 µM (inactive) | 27.7 µM (inactive) | 20.5 µM (inactive) | > 10 µM (inactive) | 16.9 µM (inactive) | 19.5 µM (inactive) |  | 17.1 µM (inactive) |  |  |  |
| NC(=O)c1coc(C2OC(CO)C(O)C2O)n1 (stereo not drawn) | > 100 µM (inactive) | > 100 µM (inactive) | > 100 µM (inactive) | > 100 µM (inactive) | > 100 µM (inactive) |  | > 100 µM (inactive) | > 100 µM (inactive) | > 100 µM (inactive) | > 100 µM (inactive) | > 100 µM (inactive) | > 100 µM (inactive) |  |  | > 100 µM (inactive) | > 100 µM (inactive) | > 100 µM (inactive) |  |  |  |
| O=C(NC1C2CC3CC(C2)CC1C3)c1cc(/C=C/c2ccccc2)nc(S)n1 (stereo not drawn) | > 100 µM (inactive) | > 100 µM (inactive) | > 100 µM (inactive) | > 100 µM (inactive) | > 100 µM (inactive) | > 100 µM (inactive) | > 100 µM (inactive) | > 100 µM (inactive) | > 100 µM (inactive) | > 100 µM (inactive) |  | > 100 µM (inactive) | > 100 µM (inactive) | > 100 µM (inactive) | > 100 µM (inactive) |  | > 100 µM (inactive) |  |  |  |
| O=C(NC1C(O)C(O)C(CO)OC1n1cc(F)c(=O)[nH]c1=O)OCc1ccccc1 (stereo not drawn) | > 100 µM (inactive) | > 100 µM (inactive) |  | > 100 µM (inactive) | > 100 µM (inactive) |  | > 100 µM (inactive) |  |  | > 100 µM (inactive) | > 100 µM (inactive) | > 100 µM (inactive) | > 100 µM (inactive) | > 100 µM (inactive) | > 100 µM (inactive) |  |  |  |  |  |
| CCCCC(NC(=O)CC)C(=O)O (stereo not drawn) | > 100 µM (inactive) | > 100 µM (inactive) | > 100 µM (inactive) | > 100 µM (inactive) | > 100 µM (inactive) | > 100 µM (inactive) | > 100 µM (inactive) | > 100 µM (inactive) | > 100 µM (inactive) | > 100 µM (inactive) | > 100 µM (inactive) | > 100 µM (inactive) | > 100 µM (inactive) |  |  |  | > 100 µM (inactive) |  |  |  |
| COc1ccc(OC)c2c3c(ccc12)C(c1ccccc1)OC3=O (stereo not drawn) | 59 µM (inactive) | 56.5 µM (inactive) | 25.8 µM (inactive) | 73.5 µM (inactive) | 56.5 µM (inactive) | 39.4 µM (inactive) | 70.1 µM (inactive) | 32.9 µM (inactive) | > 100 µM (inactive) | 72.9 µM (inactive) |  | > 100 µM (inactive) | 38.7 µM (inactive) | 39.9 µM (inactive) | 45 µM (inactive) | 60.7 µM (inactive) |  |  |  |  |
| CCOC(=O)c1c2ccccc2n2c(=O)n(-c3ccccc3)nnc12 | > 100 µM (inactive) | 7.93 µM (inactive) | 17.3 µM (inactive) | 27.5 µM (inactive) | 61 µM (inactive) | > 100 µM (inactive) | > 71.8 µM (inactive) |  | 79.3 µM (inactive) | 73.8 µM (inactive) | > 100 µM (inactive) | > 100 µM (inactive) | 27.2 µM (inactive) | > 55.6 µM (inactive) |  | 62.4 µM (inactive) | > 96.4 µM (inactive) | > 100 µM (inactive) | 18.7 µM (inactive) | 9.08 µM (inactive) |
| COc1ccc(-c2nnc(-c3nsc4ccccc34)o2)cc1 |  | 47.9 µM (inactive) | 28.3 µM (inactive) | 44.3 µM (inactive) | 49 µM (inactive) | 93.5 µM (inactive) | 65.9 µM (inactive) |  | 58.6 µM (inactive) | 38.4 µM (inactive) | 43.2 µM (inactive) | > 100 µM (inactive) | 17.5 µM (inactive) | 32.5 µM (inactive) | 31.9 µM (inactive) |  | 31.2 µM (inactive) |  |  |  |
| CCCCC1=C(Br)C(=C(Br)Br)OC1=O | 2.25 µM (inactive) | 1.87 µM (inactive) | 2.55 µM (inactive) | 7.96 µM (inactive) | 3.29 µM (inactive) | 3.17 µM (inactive) | 1.79 µM (inactive) | 1.83 µM (inactive) | 2.25 µM (inactive) | 3.02 µM (inactive) | 11 µM (inactive) | 16.5 µM (inactive) | 5.64 µM (inactive) | 2.09 µM (inactive) |  |  | 3.26 µM (inactive) |  |  |  |
